From article PMC9007350, “Aurintricarboxylic acid is a canonical disruptor of the TAZ-TEAD transcriptional complex” (PLoS ONE, 2022)

Target: T1, TAZ-TEAD complex (human TAZ (23-57) probe, human TEAD4 (217-434)) (Homo sapiens, UniProt Q15561)
T1 construct: made in house
Assay: TAZ-TEAD fluorescence polarization assay
Assay type: binding
Conditions: comparison with ATA, S2 Fig
Protocol: Human YAP (61–100), human TAZ (23–57) and mouse Vgll1 (26–51) peptide probes were used; all the probes had carboxyfluorescein labels. Human TEAD4 (217–434) was used in the assay at a concentration of 350 nM and the peptide probe concentration was 25 nM. Disruptors were titrated at concentrations ranging from 0–150 μM to the probe-TEAD complex, and the mixtures were incubated at 25°C for 20 min. Then, polarization measurements were taken using a Victor3 (PerkinElmer) plate reader.

T1 sequence (Q15561 217-434, one chain of several): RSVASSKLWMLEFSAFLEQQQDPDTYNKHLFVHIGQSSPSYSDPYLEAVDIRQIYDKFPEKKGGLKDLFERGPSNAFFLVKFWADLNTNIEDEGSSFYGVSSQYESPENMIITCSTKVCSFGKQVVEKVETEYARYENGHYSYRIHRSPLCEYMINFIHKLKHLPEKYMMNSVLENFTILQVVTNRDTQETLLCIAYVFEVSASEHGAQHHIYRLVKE

verteporfin
effect in the TAZ-TEAD FP assay (in words): did not display an effect
